According to patent US6828332B1, “Piperidine derivatives as reuptake inhibitors” (Eli Lilly and Company, priority 1999, dated 2004):
Structures can show the parent of a compound that is named as a salt.

SMILES | melting point [°C]
OC(C1CCCCC1)C(CCN1CC=C(c2csc3ccccc23)CC1)c1ccccn1 (centres unmarked) (as salt: oxalate) | 100 to 107
O=C(C1CCCCC1)C(CCN1CC=C(c2cc3ccccc3s2)CC1)c1ccccn1 (centres unmarked) (as salt: oxalate) | 228 to 230
O=C(C1CCCCC1)C(CCN1CC=C(c2ccc3sccc3c2)CC1)c1ccccn1 (centres unmarked) (as salt: oxalate) | 194 to 196
O=C(C1CCCCC1)C(CCN1CC=C(c2csc3ccccc23)CC1)c1ccccn1 (centres unmarked) (as salt: oxalate) | 208 to 210

Next, values leading:

melting point [°C] | SMILES
190 to 192 | OC(C1CCCCC1)C(CCN1CC=C(c2ccc3sccc3c2)CC1)c1ccccn1 (single isomer, unassigned) (as salt: oxalate)
210 to 212 | OC(C1CCCCC1)C(CCN1CC=C(c2cc3ccccc3s2)CC1)c1ccccn1 (single isomer, unassigned) (as salt: oxalate)
164 to 169 | O=C(C1CCCCC1)C(CCN1CC=C(c2ccc3ccsc3c2)CC1)c1ccccn1 (centres unmarked) (as salt: oxalate)
94 to 98 | OC(C1CCCCC1)C(CCN1CC=C(c2ccc3ccsc3c2)CC1)c1ccccn1 (centres unmarked) (as salt: oxalate)
